Values of other authors in patent US20170232011A1, “PHARMACEUTICAL COMPOSITION AND METHOD FOR THE TREATMENT OF URINARY TRACT INFECTIONS” (priority 2016, published 2017).

Key:
[1] = test system: Staphylococcus saprophyticus
[2] = 100 mg oral dose
[3] = test system: Coagulase negative staphylococci

For `O=C1CN(N=Cc2ccc([N+](=O)[O-])o2)C(=O)N1` [Nitrofurantoin, 1-[[[5-nitro-2-furanyl]methylene]amino]-2,4-imidazolidinedione], the “activity against E. coli” value (E. coli) is listed as “good activity”, the “activity against Staphylococcus saprophyticus” value [1] is listed as “good activity” and the plasma levels ([2]; plasma) is listed as “less than 1 μg/ml”. For the same compound, the “level in the urine” value ([2]; urine) was 200 µg/mL, the “activity against Citrobacter species” value (Citrobacter species) was “good activity” and the “activity against Coagulase negative staphylococci” value [3] was “good activity”. For the same compound, the “activity against Enterococcus faecalis” value (Enterococcus faecalis) was “good activity”, the “activity against Klebsiella species” value (Klebsiella species) was “good activity” and the “activity against Staphylococcus aureus” value (Staphylococcus aureus) was “good activity”. For the same compound, the “activity against Streptococcus agalactiae” value (Streptococcus agalactiae) was “good activity”.

For `Nc1ccc(N=Nc2ccccc2)c(N)n1` [Phenazopyridine, 3-phenyldiazenylpyridine-2,6-diamine], the “oral dose excreted directly into the urine chemically unchanged” value is listed as roughly 65%.
